Where two headings read alike, the source gives them in different places.
How the values were obtained:
[1] = system: VCAM-1 expression in human umbilical vein-derived endothelial cells (HUVEC); assay: Inhibitory effect on TNF alpha-induced VCAM-1 expression in HUVEC (cell ELISA); assay type: cell-based; conditions: for IC50: tumour necrosis factor α 20 U/ml, 5 hr
Procedure: (§1) HUVEC was suspended in 199 medium containing 20% fetal calf serum, 20 µg/ml endothelial cell growth factor derived from bovine brain, and 100 µg/ml heparin, plated into 96-well microculture plates coated with collagen, and cultured at 37°C in 5% CO2. When cells grew to confluence, the cells received tumour necrosis factor α (20 U/ml for VCAM-1 expression induction, 100 U/ml for E-selectin expression induction) and the test compound, which was followed by further culture for 5 hr. The cells were washed once with 199 medium and mouse anti-human VCAM-1 monoclonal antibody (2 µg/ml) or rat anti-human E-selectin monocolnal antibody (2 µg/ml) was added. The cells were stood for 1 hr at room temperature. The cells were washed twice and peroxidase-conjugated anti-mouse immunoglobulin antibody or anti-rat immunoglobulin antibody was added. The cells were stood for 1 hr at room temperature. The cells were washed 3 times and 2,2'-azino-bis(3-ethylbenzothiazoline-6-sulfonic acid) as a peroxidase substrate was added. The plates were stood for 15 min at room temperature and absorbance at 405 n/490 nm was measured with a 96-well microplate reader, which was used as an indicator of VCAM-1 or E-selectin expression.

[2] = system: E-selectin expression in human umbilical vein-derived endothelial cells (HUVEC); assay: Inhibitory effect on TNF alpha-induced E-selectin expression in HUVEC (cell ELISA); assay type: cell-based; conditions: for IC50: tumour necrosis factor α 100 U/ml, 5 hr
Procedure: as §1

[3] = system: CD11b expression of human histiocytic leukemia cell line U937; assay: Effect on CD11b expression of human histiocytic leukemia cell line U937 (cell ELISA); assay type: cell-based; conditions: U937 cells; for IC50: PDB 10 ng/ml, cultured 3 days, read-out: Inhibitory effect on CD11b expression (IC50)
Procedure: Effect on the expression of CD11b antigen, which constitutes the α chain of Mac-1, which is one of the adhesion molecules expressing on the surface of leukocytic cells, was investigated. U937 cells were suspended in RPMI1640 medium containing 20% fetal calf serum, plated with phorbol 12,13-dibutyrate (PDB, 10 ng/ml) and the test compound into 96-well filtration plates (30000 cells/well), and cultured for 3 days at 37°C in 5% CO2. After washing the cells once with RPMI1640 medium, rat anti-human CD11b monoclonal antibody (2 µg/ml) was added and the plates were stood for 1 hr under ice-cooling. The cells were washed twice and peroxidase-conjugated anti-rat immunoglobulin antibody (1 µg/ml) was added. The cells were stood for 1 hr under ice-cooling. The cells were washed 3 times and peroxidase substrate (o-phenylenediamine) for coloring was added. The plates were stood for 15 min at room temperature and absorbance at 490 nm was measured with a 96-well microplate reader, which was used as an indicator of CD 11b antigen expression.

[4] = system: trinitrobenzenesulfonic acid (TNBS)-induced colitis; assay: Effect on trinitrobenzenesulfonic acid (TNBS)-induced colitis in rat; assay type: in vivo, SD rats; conditions: TNBS sensitized rats, 5 days
Procedure: Colitis was induced by intraintestinal injection of TNBS solution (60 mg/ml in 50% EtOH, 500 µl) to SD rats. Seven days later, rats were subjected to autopsy and large intestine (8 cm from anus) was cut out and weighed. Myeloperoxidase (MPO) activity in the intestinal tissue was measured and taken as an indicator of infiltrated leukocyte count. That is, the intestine was homogenized and a cycle of freeze-thawing of the tissue was repeated 3 times. The supernatant obtained by centrifugation was assayed for MPO activity using peroxidase substrate (o-phenylenediamine). MPO unit in the supernatant was calculated with the commercial MPO as a standard. The increase in intestinal weight and increase in MPO activity determined as above were taken as indicators of the degree of colitis. Test compound was suspended in 0.5% hydroxypropylmethylcellulose (Metolose)solution and administered p.o. ([…]) or intraintestinally (0.2 ml/rat) for 5 days beginning on the day of TNBS injection.

[5] = Toxicity test, repeated oral administration; assay type: in vivo; conditions: female rats, repeated oral administration for 10 days, 300 mg/kg
Source text: Compound 2 was repeatedly administered orally to female rats for 10 days.

[6] = system: carrageenan-induced colitis; assay: Effect on carrageenan-induced colitis in rabbits; assay type: in vivo; conditions: 10 mg/kg consecutively from day 0 for 8 weeks, autopsy day 56, control 10.9 ± 2.0, P<0.05 (Mann-Whitney's U-test)
Procedure: A mixed emulsion of 1% λ-degraded carrageenan and Freund's complete adjuvant was subcutaneously injected to rabbits for sensitization. Starting from the 7th day (day 0) from sensitization, λ-degraded carrageenan (250-1000 mg/day/rabbit) was forcibly administered orally for 8 weeks to induce colitis. The next day (day 56) of the termination of λ-degraded carrageenan intake, the rabbits were subjected to autopsy and disorder in large intestine was scored using abnormal observation of mucosal epithelium of the tissue sample, level of infiltration of inflammatory cells and the like as indices. The test compounds (10 mg/kg) were consecutively administered from day 0 for 8 weeks.

5-(2-chlorophenyl)-7-(morpholinocarbonylethyl)-10-methyl-3,4-dihydro-2H,7H-cyclopenta[4,5]thieno[3,2-f][1,2,4]triazolo[4,3-a][1,4]diazepine [Comparison Compound]
VCAM-1 expression inhibitory effect relative to that of Compound 2 ([1]; ratio to Compound 2): not more than 1/90
IC50 [1]: > 10 µM
E-selectin expression inhibitory effect relative to the activity of Compound 2 ([2]; ratio to Compound 2): not more than 1/130
IC50 [2]: > 10 µM
IC50 [3]: > 3000 nM
activity relative to the activity of Compound 2 (CD11b expression) ([3]; ratio to Compound 2): not more than 1/100

Cc1sc2c(c1C)C(c1ccc(Cl)cc1)=N[C@@H](CC(=O)Nc1ccc(O)cc1)c1nnc(C)n1-2 [Compound 1, (S)-2-[4-(4-chlorophenyl)-2,3,9-trimethyl-6H-thieno[3,2-f][1,2,4]triazolo[4,3-a][1,4]diazepin-6-yl]-N-(4-hydroxyphenyl)acetamide]
Intestinal weight (mg, mean ± S.D.) ([4]; Table 3A, intraintestinal, 0.01 mg/site, P<0.01 (Dunnett's test)): 501.5 ± 78.3 mg
Intestinal weight (mg, mean ± S.D.) ([4]; Table 3A, intraintestinal, 0.1 mg/site, P<0.01 (Dunnett's test)): 472.0 ± 43.4 mg
Intestinal weight (mg, mean ± S.D.) ([4]; Table 3A, intraintestinal, 1 mg/site, P<0.01 (Dunnett's test)): 460.8 ± 52.3 mg
MPO activity (U/ml, mean ± S.D.) ([4]; Table 3B, intraintestinal, 0.01 mg/site, P<0.05 (Mann-Whitney's U-test)): 0.716±0.158 U/ml
MPO activity (U/ml, mean ± S.D.) ([4]; Table 3B, intraintestinal, 0.1 mg/site, P<0.05 (Mann-Whitney's U-test)): 0.654±0.109 U/ml
MPO activity (U/ml, mean ± S.D.) ([4]; Table 3B, intraintestinal, 1 mg/site, P<0.05 (Mann-Whitney's U-test)): 0.676±0.172 U/ml

Cc1sc2c(c1C)C(c1ccc(Cl)cc1)=N[C@@H](CC(=O)Nc1ccc(O)cc1)c1nnc(C)n1-2.O.O [Compound 2, (S)-2-[4-(4-chlorophenyl)-2,3,9-trimethyl-6H-thieno[3,2-f][1,2,4]triazolo[4,3-a][1,4]diazepin-6-yl]-N-(4-hydroxyphenyl)acetamide dihydrate]
IC50 ([1]; Homo sapiens): 0.11 µM
death [5]: No case of death was observed
Intestinal weight (mg, mean ± S.D.) ([4]; Table 4A, intraintestinal, 0.01 mg/site, P<0.01 (Dunnett's test)): 499.6 ± 71.7 mg
Intestinal weight (mg, mean ± S.D.) ([4]; Table 4A, intraintestinal, 0.1 mg/site, P<0.01 (Dunnett's test)): 502.0 ± 51.5 mg
Intestinal weight (mg, mean ± S.D.) ([4]; Table 4A, intraintestinal, 1 mg/site, P<0.05 (Dunnett's test)): 536.0 ± 62.2 mg
MPO activity (U/ml, mean ± S.D.) ([4]; Table 4B, intraintestinal, 0.01 mg/site, P<0.01 (Mann-Whitney's U-test)): 0.354 ± 0.081 U/ml
MPO activity (U/ml, mean ± S.D.) ([4]; Table 4B, intraintestinal, 0.1 mg/site, P<0.01 (Mann-Whitney's U-test)): 0.334 ± 0.069 U/ml
MPO activity (U/ml, mean ± S.D.) ([4]; Table 4B, intraintestinal, 1 mg/site, P<0.01 (Mann-Whitney's U-test)): 0.345 ± 0.097 U/ml
Intestinal weight (mg, mean ± S.D.) ([4]; Table 5A, oral, 0.03 mg/kg, significance none (Dunnett's test)): 699.3 ± 163.7 mg
Intestinal weight (mg, mean ± S.D.) ([4]; Table 5A, oral, 1 mg/kg, P<0.01 (Dunnett's test)): 468.5 ± 47.6 mg
Intestinal weight (mg, mean ± S.D.) ([4]; Table 5A, oral, 3 mg/kg, P<0.01 (Dunnett's test)): 458.0 ± 34.7 mg
MPO activity (U/ml, mean ± S.D.) ([4]; Table 5B, oral, 0.3 mg/kg, significance none (Mann-Whitney's U-test)): 1.568 ± 0.538 U/ml
MPO activity (U/ml, mean ± S.D.) ([4]; Table 5B, oral, 1 mg/kg, P<0.05 (Mann-Whitney's U-test)): 0.769 ± 0.222 U/ml
MPO activity (U/ml, mean ± S.D.) ([4]; Table 5B, oral, 3 mg/kg, P<0.05 (Mann-Whitney's U-test)): 0.740 ± 0.142 U/ml
mean ± S.E. of score (disorder in large intestine) [6]: 5.3 ± 0.6
IC50 ([2]; Homo sapiens): 0.073 µM
IC50 ([3]; Homo sapiens, U-937, 72 h): < 30 nM
